From patent US7053070B2, “Pyrido[2,3-d]pyrimidine-2,7-diamine kinase inhibitors” (Warner-Lambert Company, priority 2000, dated 2006) come the findings set out here.

For one data set, the target named is cdk4/cyclinD (Homo sapiens, UniProt P11802). Put plainly: Cyclin Dependent Kinase 4 (cdk-4) Assay, 32P incorporation, filter plate. The class given is biochemical. The note with it: retinoblastoma substrate, 25 μM ATP, 25° C., 15 minutes; read-out: Inhibition of Cdks: IC50 Cdk4D. How it is done:
Cyclin Dependent Kinase 4 (cdk-4) Assay
Enzyme assays for IC50 determinations and kinetic evaluation are performed in 96-well filter plates (Millipore MADVN6550). The total volume is 0.1 mL containing a final concentration of 20 mM TRIS (tris[hydroxymethyl]aminomethane), at pH 7.4, 50 mM NaCl, 1 mM dithiothreitol, 10 mM MgCl2, 25 μM ATP containing 0.25 μCi of [^32P]ATP, 20 ng of cdk4, 1 μg of retinoblastoma, and appropriate dilutions of a compound of the present invention. All components except the ATP are added to the wells, and the plate is placed on a plate mixer for 2 minutes. The reaction is started by adding [^32P]ATP, and the plate is incubated at 25° C. for 15 minutes. The reaction is terminated by addition of 0.1 mL of 20% trichloroacetic acid (TCA). The plate is kept at 4° C. for at least 1 hour to allow the substrate to precipitate. The wells are then washed 5 times with 0.2 mL of 10% TCA and ^32P incorporation is determined with a beta plate counter (Wallac Inc., Gaithersburg, Md.).

Another data set has as its target cdk2/cyclinA (Homo sapiens, UniProt P24941). The data set is described as follows: Cyclin dependent kinase 2 assay (cdk2/cyclinA), 32P incorporation, filter plate. It counts as biochemical. The note with it: retinoblastoma substrate, 12 mM ATP, 25° C., 15 minutes; read-out: Inhibition of Cdks: IC50 Cdk2/A. The procedure:
(§1) Cyclin Dependent Kinase 1 and 2 Assays (cdk1/cyclinB, cdk2/cyclinA, cdk2/cyclinE)
(§2) Enzyme assays for IC50 determinations and kinetic evaluation are performed in a 96-well filter plate (Millipore MADVN6550) in a total volume of 0.1 mL of 20 mM TRIS (tris[hydroxymethyl]aminomethane), at pH 7.4, 50 mM NaCl, 1 mM dithiothreitol, 10 mM MgCl2, […] containing 0.25 μCi of [^32P]ATP, 20 ng of enzyme (either cdk1/B, cdk2/A, or cdk2E), 1 μg retinoblastoma and appropriate dilutions of the particular invention compound. All components except the ATP are added to the wells, and the plate is placed on a plate mixer for 2 minutes. The reaction is begun by addition of [^32P]ATP, and the plate is incubated at 25° C. for 15 minutes. The reaction is terminated by addition of 0.1 mL of 20% TCA. The plate is kept at 4° C. for at least 1 hour to allow the substrate to precipitate. The wells are then washed 5 times with 0.2 mL of 10% TCA and ^32P incorporation determined with a beta plate counter (Wallac Inc., Gaithersburg, Md.).

A further data set deals with cdk2/cyclinE (Homo sapiens, UniProt P24941). Put plainly: Cyclin dependent kinase 2 assay (cdk2/cyclinE), 32P incorporation, filter plate. The class given is biochemical. The note with it: retinoblastoma substrate, 12 mM ATP, 25° C., 15 minutes; read-out: Inhibition of Cdks: IC50 Cdk2/E. How it is done: as §1, §2
The next data set addresses cdk1/cyclinB (Homo sapiens, UniProt P06493). Put plainly: Cyclin dependent kinase 1 assay (cdk1/cyclinB), 32P incorporation, filter plate. It counts as biochemical. The note with it: retinoblastoma substrate, 12 mM ATP, 25° C., 15 minutes; read-out: Inhibition of Cdks: IC50 Cdk1/B. How it is done:
as §1, §2

Each structure is given as a SMILES string.

cdk4/cyclinD, sequence (P11802 whole entry, species assumed): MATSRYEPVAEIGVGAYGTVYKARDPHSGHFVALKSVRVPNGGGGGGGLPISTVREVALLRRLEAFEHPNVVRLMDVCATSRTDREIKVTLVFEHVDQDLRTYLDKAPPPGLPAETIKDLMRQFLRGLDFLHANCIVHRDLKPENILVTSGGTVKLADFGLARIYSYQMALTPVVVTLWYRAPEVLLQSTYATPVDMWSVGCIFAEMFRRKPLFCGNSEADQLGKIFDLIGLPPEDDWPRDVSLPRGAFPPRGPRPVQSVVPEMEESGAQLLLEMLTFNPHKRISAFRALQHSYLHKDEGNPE
cdk4/cyclinD, sequence (P24385 whole entry partner, species assumed): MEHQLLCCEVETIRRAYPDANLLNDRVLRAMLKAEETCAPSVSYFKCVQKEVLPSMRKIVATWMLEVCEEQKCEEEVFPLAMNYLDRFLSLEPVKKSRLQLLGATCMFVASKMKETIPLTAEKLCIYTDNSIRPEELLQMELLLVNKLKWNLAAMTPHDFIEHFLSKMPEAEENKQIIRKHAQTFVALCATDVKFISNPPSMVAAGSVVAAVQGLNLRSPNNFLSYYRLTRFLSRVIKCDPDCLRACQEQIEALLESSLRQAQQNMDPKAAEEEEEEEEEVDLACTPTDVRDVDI
cdk1/cyclinB, sequence (P06493 whole entry, species assumed): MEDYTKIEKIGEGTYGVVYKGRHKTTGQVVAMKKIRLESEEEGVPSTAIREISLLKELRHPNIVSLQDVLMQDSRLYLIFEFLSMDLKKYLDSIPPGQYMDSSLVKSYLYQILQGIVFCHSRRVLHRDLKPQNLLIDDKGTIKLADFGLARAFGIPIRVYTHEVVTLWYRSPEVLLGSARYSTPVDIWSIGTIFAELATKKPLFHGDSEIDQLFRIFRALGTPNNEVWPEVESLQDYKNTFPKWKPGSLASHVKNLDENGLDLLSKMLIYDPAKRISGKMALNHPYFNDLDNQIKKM
cdk1/cyclinB, sequence (P14635 whole entry partner, species assumed): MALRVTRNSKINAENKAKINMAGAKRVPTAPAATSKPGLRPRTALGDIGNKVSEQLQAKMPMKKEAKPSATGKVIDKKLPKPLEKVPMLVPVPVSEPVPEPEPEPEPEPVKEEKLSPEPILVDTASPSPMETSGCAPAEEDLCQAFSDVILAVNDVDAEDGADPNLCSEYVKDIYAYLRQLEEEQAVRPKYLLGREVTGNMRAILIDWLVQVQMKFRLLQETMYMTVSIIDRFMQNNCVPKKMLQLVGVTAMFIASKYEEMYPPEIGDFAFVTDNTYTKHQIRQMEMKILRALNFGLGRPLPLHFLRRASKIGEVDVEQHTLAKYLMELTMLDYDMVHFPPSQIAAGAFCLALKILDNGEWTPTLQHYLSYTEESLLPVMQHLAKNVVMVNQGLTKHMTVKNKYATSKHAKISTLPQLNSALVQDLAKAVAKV

Turning to `CC(C)C[C@@H](CO)NC(=O)Nc1ccc2cnc(Nc3ccc(N4CCNCC4)cc3)nc2n1` [Compound 83, 1-((S)-1-Hydroxymethyl-3-methyl-butyl)-3-[2-(4-piperazin-1-yl-phenylamino)-pyrido[2,3-d]pyrimidin-7-yl]-urea], the melting point was 185 °C (dec.). Further, on cdk4/cyclinD, the IC50 came out at 55 nM. In addition, at cdk2/cyclinA, the IC50 was 305 nM. Besides, the IC50 on cdk2/cyclinE is 315 nM. The IC50 on cdk1/cyclinB was determined as 399 nM.
For `CN1CCN(C(=O)Nc2ccc3cnc(Nc4ccc(N5CCNCC5)cc4)nc3n2)CC1` [Compound 84, 4-Methyl-piperazine-1-carboxylic acid [2-(4-piperazin-1-yl-phenylamino)-pyrido[2,3-d]pyrimidin-7-yl]-amide], in that order: 200 °C (dec.), above 5000 nM, above 5000 nM, above 5000 nM and above 5000 nM.
For `O=C(Nc1ccc2cnc(Nc3ccc(N4CCNCC4)cc3)nc2n1)N1CCOCC1` [Compound 85, Morpholine-4-carboxylic acid [2-(4-piperazin-1-yl-phenylamino)-pyrido[2,3-d]pyrimidin-7-yl]-amide], in that order: 190 °C (dec.), above 5000 nM, above 5000 nM, above 5000 nM and above 5000 nM.
`CCCN(CCC)C(=O)Nc1ccc2cnc(Nc3ccc(N4CCNCC4)cc3)nc2n1` [Compound 86, 3-[2-(4-Piperazin-1-yl-phenylamino)-pyrido[2,3-d]pyrimidin-7-yl]-1,1-dipropyl urea]: the melting point was 190 °C (dec.). The IC50 at cdk4/cyclinD is above 5000 nM. At cdk2/cyclinA, the IC50 was above 5000 nM. The IC50 on cdk2/cyclinE is above 5000 nM. The IC50 at cdk1/cyclinB was above 5000 nM.
Turning to `O=C(Nc1ccc2cnc(Nc3ccc(N4CCNCC4)cc3)nc2n1)N1CCNCC1` [Compound 87, Piperazine-1-carboxylic acid [2-(4-piperazin-1-yl-phenylamino)-pyrido[2,3-d]pyrimidin-7-yl]-amide], the melting point was 220 °C (dec.). Further, the IC50 at cdk4/cyclinD is above 5000 nM. The IC50 on cdk2/cyclinA is above 5000 nM. In addition, the IC50 on cdk2/cyclinE was above 5000 nM. In addition, the IC50 on cdk1/cyclinB is above 5000 nM.
As to `CC(C)[C@H](CO)NC(=O)Nc1ccc2cnc(Nc3ccc(N4CCNCC4)cc3)nc2n1` [Compound 88, 1-((R)-1-Hydroxymethyl-2-methyl-propyl)-3-[2-(4-piperazin-1-yl-phenylamino)-pyrido[2,3-d]pyrimidin-7-yl]-urea], the melting point was 200 °C (dec.). The IC50 at cdk4/cyclinD was determined as 25 nM. Further, the IC50 at cdk2/cyclinA worked out at 43 nM. In addition, the IC50 on cdk2/cyclinE came to 55 nM. Also, the IC50 at cdk1/cyclinB came to 418 nM.
Taken in the same sequence, the figures for `O=C(Nc1ccc2cnc(Nc3ccc(N4CCNCC4)cc3)nc2n1)N(CCO)CCO` [Compound 89, 1,1-Bis-(2-hydroxy-ethyl)-3-[2-(4-piperazin-1-yl-phenylamino)-pyrido[2,3-d]pyrimidin-7-yl]-urea] were 185 °C (dec.), above 5000 nM, above 5000 nM, above 5000 nM and above 5000 nM.
For `O=C(NCCCN1CCOCC1)Nc1ccc2cnc(Nc3ccc(F)cc3)nc2n1` [Compound 96, 1-[2-(4-Fluoro-phenylamino)-pyrido[2,3-d]pyrimidin-7-yl]-3-(3-morpholin-4-yl-propyl)-urea], in that order: 253 to 256 °C, above 5000 nM, 1110 nM, 1550 nM and 6360 nM.
For `O=C(NCCO)Nc1ccc2cnc(Nc3ccc(F)cc3)nc2n1` [Compound 97, 1-[2-(4-Fluoro-phenylamino)-pyrido[2,3-d]pyrimidin-7-yl]-3-(2-hydroxy-ethyl)-urea], in that order: 238 to 240 °C, above 5000 nM, 278 nM, 345 nM and 862 nM.
As to `NCCNC(=O)Nc1ccc2cnc(Nc3ccc(F)cc3)nc2n1` [Compound 98, 1-(2-Amino-ethyl)-3-[2-(4-fluoro-phenylamino)-pyrido[2,3-d]pyrimidin-7-yl]-urea], the melting point lay in the range of 217 to 220 °C. The IC50 at cdk4/cyclinD came to 1050 nM. The IC50 on cdk2/cyclinA worked out at 157 nM. Further, at cdk2/cyclinE, the IC50 stood at 140 nM. Also, the IC50 at cdk1/cyclinB amounted to 442 nM.
Taken in the same sequence, the figures for `CN(C)CCNC(=O)Nc1ccc2cnc(Nc3ccc(F)cc3)nc2n1` [Compound 99, 1-(2-Dimethylamino-ethyl)-3-[2-(4-fluoro-phenylamino)-pyrido[2,3-d]pyrimidin-7-yl]-urea] were 251 to 255 °C, above 5000 nM, 1010 nM, 410 nM and 1810 nM.
With `CC(=O)N1CCN(c2ccc(Nc3ncc4ccc(NC(=O)NCCCN5CCOCC5)nc4n3)cc2)CC1` [Compound 103, 1-{2-[4-(4-Acetyl-piperazin-1-yl)-phenylamino]-pyrido[2,3-d]pyrimidin-7-yl}-3-(3-morpholin-4-yl-propyl)-urea], the melting point is 221 to 225 °C (dec.). On cdk4/cyclinD, the IC50 is above 5000 nM. In addition, the IC50 on cdk2/cyclinA was above 5000 nM. For the same compound, the IC50 at cdk2/cyclinE is above 5000 nM. For the same compound, the IC50 at cdk1/cyclinB is above 5000 nM.
Consider `C[C@@H]1CN(c2ccc(Nc3ncc4cc(Cl)c(NC(=O)NC(C)(C)C)nc4n3)cc2)C[C@H](C)N1` [Compound 104, 1-tert-Butyl-3-{6-chloro-2-[4-(cis-3,5-dimethyl-piperazin-1-yl)-phenylamino]-pyrido[2,3-d]pyrimidin-7-yl}-urea], for which the melting point is 205 °C (dec.). In addition, the IC50 at cdk4/cyclinD turned out to be 185 nM. The IC50 at cdk2/cyclinA is above 5000 nM. Further, at cdk2/cyclinE, the IC50 was above 5000 nM. On cdk1/cyclinB, the IC50 is above 5000 nM.
As to `CCCNC(=O)Nc1cc(C)c2cnc(Nc3ccc(N4CCNCC4)cc3)nc2n1` [Compound 111, 1-[5-Methyl-2-(4-piperazin-1-yl-phenylamino)-pyrido[2,3-d]pyrimidin-7-yl]-3-propyl-urea], the melting point was in the range of 223 to 225 °C. Also, the IC50 on cdk4/cyclinD is above 5000 nM. Further, the IC50 on cdk2/cyclinA was above 5000 nM. Also, at cdk2/cyclinE, the IC50 is above 5000 nM. Also, the IC50 at cdk1/cyclinB was above 5000 nM.
As to `Cc1c(F)c(NC(=O)NC(C)C)nc2nc(Nc3ccc(N4CCNCC4)cc3)ncc12` [Compound 114, 1-[6-Fluoro-5-methyl-2-(4-piperazin-1-yl-phenylamino)-pyrido[2,3-d]pyrimidin-7-yl]-3-isopropyl-urea], the melting point is 208 °C (dec.). Also, the IC50 at cdk4/cyclinD was above 5000 nM. Also, the IC50 at cdk2/cyclinA is above 5000 nM. The IC50 on cdk2/cyclinE was above 5000 nM. For the same compound, on cdk1/cyclinB, the IC50 is above 5000 nM.

Broadly, the melting point is the temperature, or range, at which the solid turns liquid.
